Measurements from patent US20220395472A1 (Dermavant Sciences GmbH, priority 2021, published 2022).

System: adults with plaque psoriasis
Assay: Long-term extension study (PSOARING 3): % BSA affected
Assay type: in vivo, human
Description: The % BSA affected is an estimate of the percentage of total involved skin with psoriasis. For the purpose of clinical estimation, the total palmar surface of the subject's palm and digits was assumed to be approximately equivalent to 1% BSA. The % BSA affected by psoriasis was evaluated (from 0% to 100%). Details on calculation of approximate % BSA involvement in each subject (total and individual) can be found in Appendix 2 of the protocol. Percent BSA is a static assessment made without reference to previous scores.
At Screening, Baseline, and for all efficacy assessments, lesions on the subject's scalp, palms, fingernails, toenails, and soles were not included in the calculation of % BSA affected as these areas were excluded from the efficacy analyses.

[1] = Week 16 LOCF, Tapinarof (Pivotal)
[2] = Week 16 LOCF, Vehicle (Pivotal)
[3] = Week 16 OC, Tapinarof (Pivotal)
[4] = Week 40 LOCF, Tapinarof (Pivotal)
[5] = Week 40 LOCF, Vehicle (Pivotal)
[6] = Week 40 OC, Tapinarof (Pivotal)

Structure (SMILES): CC(C)c1c(O)cc(/C=C/c2ccccc2)cc1O [Tapinarof Cream 1%]
- % BSA affected, Observed, Mean (Baseline, Overall): 4.65 % BSA
- % BSA affected, Observed, Median (Baseline, Overall): 3.00 % BSA
- % BSA affected, Observed, Mean (Baseline, Tapinarof (Pivotal)): 3.31 % BSA
- % BSA affected, Observed, Median (Baseline, Tapinarof (Pivotal)): 2.00 % BSA
- % BSA affected, CFBL, Mean (Week 16 LOCF, Overall): −1.85 % BSA
- % BSA affected, CFBL, Median (Week 16 LOCF, Overall): −0.96 % BSA
- % BSA affected, Observed, Mean (Week 16 LOCF, Overall): 2.82 % BSA
- % BSA affected, Observed, Median (Week 16 LOCF, Overall): 1.20 % BSA
- % BSA affected, Percent CFBL, Mean (Week 16 LOCF, Overall): −20.99%
- % BSA affected, Percent CFBL, Median (Week 16 LOCF, Overall): −46.13%
- % BSA affected, CFBL, Mean [1]: −0.77 % BSA
- % BSA affected, CFBL, Median [1]: −0.20 % BSA
- % BSA affected, Observed, Mean [1]: 2.54 % BSA
- % BSA affected, Observed, Median [1]: 1.00 % BSA
- % BSA affected, Percent CFBL, Mean [1]: −5.67%
- % BSA affected, Percent CFBL, Median [1]: −33.33%
- % BSA affected, CFBL, Mean [2]: −3.96 % BSA
- % BSA affected, CFBL, Median [2]: −2.98 % BSA
- % BSA affected, Observed, Mean [2]: 3.36 % BSA
- % BSA affected, Observed, Median [2]: 1.80 % BSA
- % BSA affected, Percent CFBL, Mean [2]: −47.15%
- % BSA affected, Percent CFBL, Median [2]: −63.42%
- % BSA affected, CFBL, Mean (Week 16 OC, Overall): −2.11 % BSA
- % BSA affected, CFBL, Median (Week 16 OC, Overall): −1.00 % BSA
- % BSA affected, Observed, Mean (Week 16 OC, Overall): 2.28 % BSA
- % BSA affected, Observed, Median (Week 16 OC, Overall): 1.02 % BSA
- % BSA affected, Percent CFBL, Mean (Week 16 OC, Overall): −31.25%
- % BSA affected, Percent CFBL, Median (Week 16 OC, Overall): −50.00%
- % BSA affected, CFBL, Mean [3]: −0.97 % BSA
- % BSA affected, CFBL, Median [3]: −0.23 % BSA
- % BSA affected, Observed, Mean [3]: 1.97 % BSA
- % BSA affected, Observed, Median [3]: 1.00 % BSA
- % BSA affected, Percent CFBL, Mean [3]: −18.46%
- % BSA affected, Percent CFBL, Median [3]: −36.96%
- % BSA affected, CFBL, Mean (Week 16 OC, Vehicle (Pivotal)): −4.40 % BSA
- % BSA affected, CFBL, Median (Week 16 OC, Vehicle (Pivotal)): −3.18 % BSA
- % BSA affected, Observed, Mean (Week 16 OC, Vehicle (Pivotal)): 2.89 % BSA
- % BSA affected, Observed, Median (Week 16 OC, Vehicle (Pivotal)): 1.50 % BSA
- % BSA affected, Percent CFBL, Mean (Week 16 OC, Vehicle (Pivotal)): −53.18%
- % BSA affected, Percent CFBL, Median (Week 16 OC, Vehicle (Pivotal)): −66.67%
- % BSA affected, CFBL, Mean (Week 40 LOCF, Overall): −2.04 % BSA
- % BSA affected, CFBL, Median (Week 40 LOCF, Overall): −1.00 % BSA
- % BSA affected, Observed, Mean (Week 40 LOCF, Overall): 2.63 % BSA
- % BSA affected, Observed, Median (Week 40 LOCF, Overall): 1.00 % BSA
- % BSA affected, Percent CFBL, Mean (Week 40 LOCF, Overall): −16.29%
- % BSA affected, Percent CFBL, Median (Week 40 LOCF, Overall): −55.78%
- % BSA affected, CFBL, Mean [4]: −0.88 % BSA
- % BSA affected, CFBL, Median [4]: −0.30 % BSA
- % BSA affected, Observed, Mean [4]: 2.44 % BSA
- % BSA affected, Observed, Median [4]: 1.00 % BSA
- % BSA affected, Percent CFBL, Mean [4]: −0.11%
- % BSA affected, Percent CFBL, Median [4]: −46.61%
- % BSA affected, CFBL, Mean [5]: −4.33 % BSA
- % BSA affected, CFBL, Median [5]: −3.30 % BSA
- % BSA affected, Observed, Mean [5]: 2.99 % BSA
- % BSA affected, Observed, Median [5]: 1.00 % BSA
- % BSA affected, Percent CFBL, Mean [5]: −43.91%
- % BSA affected, Percent CFBL, Median [5]: −75.06%
- % BSA affected, CFBL, Mean (Week 40 OC, Overall): −2.35 % BSA
- % BSA affected, CFBL, Median (Week 40 OC, Overall): −1.50 % BSA
- % BSA affected, Observed, Mean (Week 40 OC, Overall): 1.85 % BSA
- % BSA affected, Observed, Median (Week 40 OC, Overall): 0.72 % BSA
- % BSA affected, Percent CFBL, Mean (Week 40 OC, Overall): −35.43%
- % BSA affected, Percent CFBL, Median (Week 40 OC, Overall): −67.00%
- % BSA affected, CFBL, Mean [6]: −0.93 % BSA
- % BSA affected, CFBL, Median [6]: −0.49 % BSA
- % BSA affected, Observed, Mean [6]: 1.75 % BSA
- % BSA affected, Observed, Median [6]: 0.68 % BSA
- % BSA affected, Percent CFBL, Mean [6]: −21.60%
- % BSA affected, Percent CFBL, Median [6]: −57.39%
- % BSA affected, CFBL, Mean (Week 40 OC, Vehicle (Pivotal)): −5.30 % BSA
- % BSA affected, CFBL, Median (Week 40 OC, Vehicle (Pivotal)): −4.49 % BSA
- % BSA affected, Observed, Mean (Week 40 OC, Vehicle (Pivotal)): 2.07 % BSA
- % BSA affected, Observed, Median (Week 40 OC, Vehicle (Pivotal)): 0.80 % BSA
- % BSA affected, Percent CFBL, Mean (Week 40 OC, Vehicle (Pivotal)): −60.22%
